Patent US7759356B2, “Arylindenopyridines and arylindenopyrimidines and related therapeutic and prophylactic methods” (Janssen Pharmaceutica, N.V., priority 2002, dated 2010)

Legend:
A1 = target: T1, A1 (Homo sapiens, UniProt P30542); test: A1 antagonist function; assay type: cell-based
T1 sequence (P30542 1-326): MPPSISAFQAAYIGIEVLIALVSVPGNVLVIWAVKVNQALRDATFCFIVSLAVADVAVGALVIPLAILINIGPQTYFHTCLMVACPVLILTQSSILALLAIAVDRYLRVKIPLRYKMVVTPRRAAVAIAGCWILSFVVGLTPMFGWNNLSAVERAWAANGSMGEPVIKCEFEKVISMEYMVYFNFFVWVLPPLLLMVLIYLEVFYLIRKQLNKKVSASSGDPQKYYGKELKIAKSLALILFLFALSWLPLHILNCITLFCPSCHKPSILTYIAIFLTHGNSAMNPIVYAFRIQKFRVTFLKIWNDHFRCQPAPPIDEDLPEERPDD

[1] = target: T2, human A2a adenosine receptor (Homo sapiens, UniProt P29274); test: Ligand binding assay for adenosine A2a receptor ([3H]CGS21680, HEK293 membranes); settings: radioligand [3H]CGS21680, HEK293 plasma membrane
T2 construct: purchased PerkinElmer RB-HA2a; host or cells: HEK293 cell plasma membranes
Description: Ligand Binding Assay for Adenosine A2a Receptor
Ligand binding assay of adenosine A2a receptor was performed using plasma membrane of HEK293 cells containing human A2a adenosine receptor (PerkinElmer, RB-HA2a) and radioligand [^3H]CGS21680 (PerkinElmer, NET1021). Assay was set up in 96-well polypropylene plate in total volume of 200 μL by sequentially adding 20 μL1:20 diluted membrane, 130 μL assay buffer (50 mM Tris.HCl, pH7.4 10 mM MgCl2, 1 mM EDTA) containing [^3H] […] Nonspecific binding was determined by […] NECA. Reaction was carried out at room temperature for 2 hours before filtering through 96-well GF/C filter plate pre-soaked in 50 mM Tris.HCl, pH7.4 containing 0.3% polyethylenimine. Plates were then washed 5 times with cold 50 mM Tris.HCl, pH7.4, dried and sealed at the bottom. Microscintillation fluid 30 μl was added to each well and the top sealed. Plates were counted on Packard Topcount for [^3H]. Data was analyzed in Microsoft Excel and GraphPad Prism programs.

[2] = target: T3, human adenosine A2a receptors (Homo sapiens, UniProt P29274); test: Adenosine A2a receptor functional assay (antagonist mode, cAMP-inducible beta-galactosidase reporter, CHO-K1 cells, 50 nM NECA); assay type: cell-based; settings: read-out: Ki A2a antagonist function
T3 construct: expressed in transfected cells; host or cells: CHO-K1 cells with cAMP-inducible beta-galactosidase reporter gene
Description: Adenosine A2a Receptor Functional Assay
CHO—K1 cells overexpressing human adenosine A2a receptors and containing cAMP-inducible beta-galactosidase reporter gene were seeded at 40-50K/well into 96-well tissue culture plates and cultured for two days. On assay day, cells were washed once with 200 μL assay medium (F-12 nutrient mixture/0.1% BSA). For agonist assay, adenosine A2a receptor agonist NECA was subsequently added and cell incubated at 37° C., 5% CO2 for 5 hrs before stopping reaction. In the case of antagonist assay, cells were incubated with antagonists for 5 minutes at R.T. followed by addition of 50 nM NECA. Cells were then incubated at 37° C., 5% CO2 for 5 hrs before stopping experiments by washing cells with PBS twice. 50 μL 1× lysis buffer (Promega, 5× stock solution, needs to be diluted to 1× before use) was added to each well and plates frozen at −20° C. For β-galactosidase enzyme colorimetric assay, plates were thawed out at room temperature and 50 μL 2× assay buffer (Promega) added to each well. Color was allowed to develop at 37° C. for 1 h or until reasonable signal appeared. Reaction was then stopped with 150 μL 1M sodium carbonate. […] Data was analyzed in Microsoft Excel and GraphPad Prism programs.

T3 sequence (P29274 whole entry): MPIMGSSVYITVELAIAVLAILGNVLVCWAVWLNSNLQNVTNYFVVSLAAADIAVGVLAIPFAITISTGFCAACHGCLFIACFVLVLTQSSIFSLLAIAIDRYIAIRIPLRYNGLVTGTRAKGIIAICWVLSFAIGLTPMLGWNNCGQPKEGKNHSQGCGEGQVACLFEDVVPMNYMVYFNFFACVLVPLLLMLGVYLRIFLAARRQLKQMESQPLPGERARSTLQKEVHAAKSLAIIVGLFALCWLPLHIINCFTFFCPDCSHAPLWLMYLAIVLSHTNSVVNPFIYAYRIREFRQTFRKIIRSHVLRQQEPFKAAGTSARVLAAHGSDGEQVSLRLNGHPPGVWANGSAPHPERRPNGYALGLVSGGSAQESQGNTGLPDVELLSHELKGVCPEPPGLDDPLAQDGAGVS
T2 sequence (P29274 whole entry): as above

Structure (SMILES)	Ki (A1) [nM]	Ki [1] [nM]	Ki [2] [nM]
Nc1nc(-c2ccco2)c2c(n1)-c1cccc(N)c1C2=O [Compound 20]	0.91	0.05	0.126
C[C@@H](CN(C)C)OC(=O)c1c(N)nc(-c2ccco2)c2c1-c1ccccc1C2=O [Compound 96]	52.5	48.5	10.1
CN1CCN(Cc2cccc3c2C(=O)c2c(-c4ccccc4)nc(N)nc2-3)CC1 [Compound 50]		80.2	
CC(CN(C)C)NC(=O)c1c(N)nc(-c2ccco2)c2c1-c1ccccc1C2=O (stereo not drawn) [Compound 78, 9H-indeno[2,1-c]pyridine-4-carboxylic acid, 3-amino-1-furan-2-yl-9-oxo-, (2-dimethylamino-1-methyl-ethyl)-amide]	> 500		
COc1ccc(-c2nc(N)nc3c2C(=O)c2ccccc2-3)cn1 [Compound 30]		31.6	
CS(=O)(=O)c1nc(N)nc2c1C(=O)c1ccccc1-2 [Compound 40, 2-Amino-4-methanesulfonyl-indeno[1,2-d]pyrimidin-5-one]		2720	
CC(O)C(O)c1cccc2c1-c1nc(N)nc(-c3ccccc3)c1C2=O (stereo not drawn) [Compound 33]	0.021	0.175	0.34
CN(C)CCN(C)C(=O)c1c(N)nc(-c2ccco2)c2c1-c1ccccc1C2=O [Compound 77, 9H-indeno[2,1-c]pyridine-4-carboxylic acid, 3-amino-1-furan-2-yl-9-oxo-, (2-dimethylamino-ethyl)-methyl-amide]	> 500		
Nc1nc(-c2ccccc2)c2c(n1)-c1cccc(CN3CCN(CCO)CC3)c1C2=O [Compound 58]	61	30.6	11.7
CN(C)CCOC(=O)c1c(N)nc(-c2ccsc2)c2c1-c1ccccc1C2=O [Compound 93]		64	
